# Laboratory results published in article PMC8596301 (Frontiers in Pharmacology, 2021).
# Where two headings read alike, the source gives them in different places.
# Tests used:
# μOR = μOR (Homo sapiens, UniProt P35372); experiment: biochemical; assay type: binding
# δOR [1] = target: T1, δOR (Homo sapiens, UniProt P41143); experiment: biochemical; assay type: binding
# κOR = κOR (Homo sapiens, UniProt P41145); experiment: biochemical; assay type: binding
# HA-mouse µOR [2] = target: T2, HA-mouse µOR (Mus musculus, UniProt P42866); experiment: cell-based; conditions: for Emax: HEK293, read-out: cAMP α (% inhibition at maximal efficacy)
# T2 construct: expressed in transfected cells; host or cells: HEK cells (HEK-293), transient, co-transfected with pGloSensor22F
# wild-type C57Bl/6 mice [3] = conditions: cited from earlier work
# FLAG-mouse κOR [4] = target: T3, FLAG-mouse κOR (Mus musculus, UniProt P33534); experiment: cell-based
# T3 construct: expressed in transfected cells; host or cells: HEK cells (HEK-293), transient, co-transfected with pGloSensor22F
# wild-type C57Bl/6 mice [5] = experiment: Two-bottle choice alcohol paradigm (drinking in the dark, 10% ethanol vs. water); assay type: in vivo, mouse; conditions: WT male mice
# Protocol: (§1) Mice were subject to drinking in the dark (DID), limited access (4 h per day), two-bottle choice (10% ethanol vs. water) paradigm in which they were trained to consume alcohol voluntarily as previously described ([Rhodes et al., 2005]; [van Rijn and Whistler, 2009]). Mice reached stable alcohol consumption within 3 weeks of training, and after the third week, drug injections were administered prior to the daily drinking session on Friday. Drug’s effect on alcohol consumption was measured as the change in Friday’s alcohol intake minus the average alcohol intake from the preceding Tuesday–Thursday of that week (g∙kg^−1). A summary of all statistical analyses for the drinking data can be found in Supplemental Tables S6–S9. In brief, results from two-bottle choice alcohol consumption paradigms were assessed for statistical significance using RM two-way ANOVA for main effects of drug dose, treatment day, and drug dose × treatment day; Sidak’s multiple comparisons (MC) between alcohol consumption baseline (Tuesday–Thursday average) vs. treatment day consumption (Friday) were then used as the post hoc test for each drug dose tested. The same RM two-way ANOVA and Sidak’s MC post hoc analyses were used for water consumption and ethanol preference data. […] Sex differences between baseline data were evaluated using RM two-way ANOVA for main effects of sex, treatment baseline, and sex × treatment baseline; Sidak’s multiple comparisons (MC) between male and female mice were then used as the post hoc test for each treatment week tested.
# δOR KO mice = experiment: as above; assay type: in vivo, mouse; conditions: speciociliatine 30 mg∙kg^−1 i.p.; δOR KO male mice
# Protocol: as §1
# [6] = test system: wild-type and δOR KO male mice; experiment: Accelerating rotarod test; assay type: in vivo, mouse
# Protocol: Mice were trained to walk on a rotarod apparatus (IITC, United States) with 1.25” diameter drums 2 days prior to drug testing. The rotarod started at 3 rpm and was increased to 30 rpm over 300 s. A trial for a mouse ended when it fell and tripped the sensor, when it rode the rotarod for two consecutive revolutions, or after 300 s (the maximum trial time)([White et al., 2015]). Mice received at least 3 min of rest between trials. On test day, baseline performance was assessed as the average latency to fall in three trials per mouse. […] Each mouse’s performance was normalized to its own baseline and reported as a percentage. A summary of all statistical analyses for the rotarod data can be found in Supplemental Table S2. In brief, data for each tested timepoint were calculated as a percentage of the baseline, and thus statistical significance was calculated in a two-tailed, one sample t test vs. a hypothetical mean of 100 (baseline was 100%). Rotarod results between WT and δOR KO genotypes were compared with a mixed-effects model with fixed effects for timepoint, genotype, and timepoint × genotype.
# FLAG-mouse δOR [7] = target: T4, FLAG-mouse δOR (Mus musculus, UniProt P32300); experiment: cell-based; conditions: for Emax: HEK293, read-out: cAMP α (% inhibition at maximal efficacy)
# T4 construct: expressed in transfected cells; host or cells: HEK cells (HEK-293), transient, co-transfected with pGloSensor22F
# HA-mouse µOR [8] = target: T2, HA-mouse µOR; conditions: cited from earlier work
# FLAG-mouse δOR [9] = target: T4, FLAG-mouse δOR; parameters: method as in Gutridge et al., 2020; conditions: cited from earlier work
# FLAG-mouse κOR [10] = target: T3, FLAG-mouse κOR; parameters: method as in Gutridge et al., 2020; conditions: cited from earlier work
# C57Bl/6 male mice [11] = conditions: 3 mg∙kg^−1; ref Gutridge et al., 2020; cited from earlier work
# C57Bl/6 male mice [12] = experiment: Locomotor evaluation (ambulation); conditions: 7-hydroxymitragynine 3 mg∙kg^−1 i.p.; naloxone 1 mg∙kg^−1 s.c. 10 min prior; WT male mice; 90 min
# δOR [13] = target: T1, δOR; parameters: expressed in transfected cells; method as in Gutridge et al., 2020; conditions: ref Gutridge et al., 2020; cited from earlier work
# [14] = speciociliatine 3, 10 and 30 mg∙kg^−1 i.p.
# [15] = 30 mg∙kg^−1 i.p., wild-type mice
# [16] = 7-hydroxypaynantheine 30 mg∙kg^−1 s.c.
# [17] = read-out: cAMP IC50, ref Gutridge et al., 2020
# T2 sequence (P42866 whole entry): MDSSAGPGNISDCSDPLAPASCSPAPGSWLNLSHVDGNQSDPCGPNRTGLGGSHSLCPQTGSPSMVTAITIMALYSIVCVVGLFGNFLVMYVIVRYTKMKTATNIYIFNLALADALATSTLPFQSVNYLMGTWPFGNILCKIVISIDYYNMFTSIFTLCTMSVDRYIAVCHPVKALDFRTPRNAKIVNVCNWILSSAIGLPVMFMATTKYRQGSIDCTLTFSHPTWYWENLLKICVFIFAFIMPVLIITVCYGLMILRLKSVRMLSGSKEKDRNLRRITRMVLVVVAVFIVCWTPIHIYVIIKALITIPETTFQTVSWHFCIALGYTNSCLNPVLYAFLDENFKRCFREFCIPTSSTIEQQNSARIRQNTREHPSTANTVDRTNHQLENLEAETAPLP
# T3 sequence (P33534 whole entry): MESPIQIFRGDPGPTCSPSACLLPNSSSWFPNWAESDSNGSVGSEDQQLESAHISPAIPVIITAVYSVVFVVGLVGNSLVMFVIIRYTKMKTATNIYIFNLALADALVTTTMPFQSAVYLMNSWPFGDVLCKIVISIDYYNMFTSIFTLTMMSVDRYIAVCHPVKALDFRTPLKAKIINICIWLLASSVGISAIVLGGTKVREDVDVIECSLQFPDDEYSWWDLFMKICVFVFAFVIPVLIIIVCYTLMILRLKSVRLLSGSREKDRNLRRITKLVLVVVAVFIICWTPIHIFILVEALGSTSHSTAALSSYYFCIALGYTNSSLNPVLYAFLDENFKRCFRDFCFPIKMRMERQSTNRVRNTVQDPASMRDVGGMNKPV
# T4 sequence (P32300 whole entry): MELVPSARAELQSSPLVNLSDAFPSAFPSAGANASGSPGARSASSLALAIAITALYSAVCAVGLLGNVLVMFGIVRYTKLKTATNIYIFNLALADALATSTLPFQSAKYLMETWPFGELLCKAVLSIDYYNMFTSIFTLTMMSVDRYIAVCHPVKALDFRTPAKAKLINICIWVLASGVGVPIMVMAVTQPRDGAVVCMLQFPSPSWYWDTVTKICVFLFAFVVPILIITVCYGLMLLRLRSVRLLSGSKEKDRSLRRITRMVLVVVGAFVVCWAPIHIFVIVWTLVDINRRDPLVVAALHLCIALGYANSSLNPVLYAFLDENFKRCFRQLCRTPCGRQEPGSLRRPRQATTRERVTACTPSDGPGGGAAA
# Chain of κOR (P41145 whole entry): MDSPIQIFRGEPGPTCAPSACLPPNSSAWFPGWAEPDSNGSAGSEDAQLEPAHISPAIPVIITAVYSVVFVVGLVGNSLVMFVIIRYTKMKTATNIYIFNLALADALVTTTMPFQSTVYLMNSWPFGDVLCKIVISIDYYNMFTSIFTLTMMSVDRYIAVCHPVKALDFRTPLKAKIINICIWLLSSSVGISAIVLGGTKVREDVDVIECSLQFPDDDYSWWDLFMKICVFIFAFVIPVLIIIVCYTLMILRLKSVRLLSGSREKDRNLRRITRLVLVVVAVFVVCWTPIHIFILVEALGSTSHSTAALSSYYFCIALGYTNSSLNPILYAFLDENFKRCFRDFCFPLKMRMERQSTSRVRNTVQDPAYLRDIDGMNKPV
# T1 sequence (P41143 whole entry): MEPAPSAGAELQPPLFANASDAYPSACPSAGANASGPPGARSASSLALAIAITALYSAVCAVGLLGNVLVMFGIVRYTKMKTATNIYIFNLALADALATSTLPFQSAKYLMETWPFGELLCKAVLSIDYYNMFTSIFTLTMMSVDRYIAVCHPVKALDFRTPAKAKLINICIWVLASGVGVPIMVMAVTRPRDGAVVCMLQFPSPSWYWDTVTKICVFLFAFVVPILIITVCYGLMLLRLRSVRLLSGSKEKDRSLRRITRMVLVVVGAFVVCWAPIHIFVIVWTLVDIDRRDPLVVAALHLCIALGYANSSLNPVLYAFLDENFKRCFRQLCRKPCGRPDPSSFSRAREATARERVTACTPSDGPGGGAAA
# Chain of μOR (P35372 whole entry): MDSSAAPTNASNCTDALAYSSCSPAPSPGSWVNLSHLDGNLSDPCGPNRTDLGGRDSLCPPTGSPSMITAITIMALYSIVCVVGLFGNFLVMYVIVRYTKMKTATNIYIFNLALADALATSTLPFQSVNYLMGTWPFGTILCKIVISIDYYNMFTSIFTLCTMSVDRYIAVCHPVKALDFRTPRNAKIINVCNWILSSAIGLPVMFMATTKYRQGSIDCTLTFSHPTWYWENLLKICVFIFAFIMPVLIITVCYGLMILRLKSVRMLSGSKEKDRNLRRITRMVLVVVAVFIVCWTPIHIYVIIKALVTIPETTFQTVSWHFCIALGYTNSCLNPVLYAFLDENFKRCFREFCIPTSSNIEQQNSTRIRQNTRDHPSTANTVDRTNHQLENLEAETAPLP
smiles,measurement,setting,value
"C=CC1CN2CCC3(Nc4cccc(OC)c4C3=O)C2CC1C(=COC)C(=O)OC (centres unmarked) [PAYN PI, Paynantheine Pseudoindoxyl]",Ki,μOR,680 nM
same,Ki,δOR [1],920 nM
same,Ki,κOR; Binding Ki (µM),1.31 µM
same,IC50,HA-mouse µOR [2],4820 nM
same,Emax,HA-mouse µOR [2],60 ± 6%
"COc1ccsc1CNCC[C@@]1(c2ccccn2)CCOC2(CCCC2)C1 [Oliceridine/TRV130, Oliceridine]",Alcohol consumption,"wild-type C57Bl/6 mice [3]; selective activation of μOR G-protein signaling, ref Gutridge et al., 2020",did not decrease alcohol consumption
Oc1ccc2c3c1O[C@H]1c4[nH]c5ccccc5c4C[C@@]4(O)[C@@H](C2)N(CC2CC2)CC[C@]314 [naltrindole],Alcohol intake,"wild-type C57Bl/6 mice [3]; 10 mg∙kg^−1, ref van Rijn and Whistler, 2009",does not decrease alcohol intake
"CC[C@@H]1CN2CCc3c([nH]c4cccc(OC)c34)[C@H]2C[C@@H]1/C(=C\OC)C(=O)OC [SPECIO, speciociliatine]",Ki,δOR [1],4340 nM
same,Ki,κOR; Binding Ki (µM),0.59 µM
same,Emax,"FLAG-mouse κOR [4]; HEK293, read-out: cAMP α (% inhibition at maximal efficacy)",60 ± 7%
same,Average decrease in ethanol consumption,wild-type C57Bl/6 mice [5]; 30 mg∙kg^−1 i.p.,2.5 ± 0.3 g/kg
same,Reduction in ethanol consumption,wild-type C57Bl/6 mice [5]; 30 mg∙kg^−1 i.p.,90 ± 3%
same,Ethanol preference,wild-type C57Bl/6 mice [5]; speciociliatine 30 mg∙kg^−1 i.p.,significantly decreased
same,Ethanol consumption,wild-type C57Bl/6 mice [5]; [14],significantly decreased ethanol consumption but only at the 30 mg∙kg^−1 dose
same,Water consumption,wild-type C57Bl/6 mice [5]; [14],did not change water consumption
same,Ethanol preference,δOR KO mice,significantly decreased
same,Water consumption,δOR KO mice,did not change water consumption
same,Seizure level observed in the rotarod assay,"[6]; 30 mg/kg i.p., one δOR KO mouse",5–6
same,Mortality in the rotarod assay,"[6]; 30 mg/kg i.p., δOR KO mice (n = 8)",one δOR KO mouse died
same,"Rotarod performance (latency to fall, % of baseline)",[6]; [15],significantly reduced the ability
same,Time of full recovery on rotarod,[6]; [15],120 min
same,Rotarod performance,"[6]; 30 mg∙kg^−1 i.p., δOR KO mice",same effect was observed
"CC[C@H]1CN2CC[C@]3(Nc4cccc(OC)c4C3=O)[C@@H]2C[C@@H]1/C(=C\OC)C(=O)OC [SPG PI, Speciogynine Pseudoindoxyl]",Ki,μOR,77 nM
same,Ki,δOR [1],940 nM
same,Ki,κOR,0.75 µM
same,IC50,HA-mouse µOR [2],230 nM
same,Emax,HA-mouse µOR [2],58 ± 4%
same,IC50,FLAG-mouse δOR [7],8530 nM
same,Emax,FLAG-mouse δOR [7],80 ± 20%
same,IC50,FLAG-mouse κOR [4],20600 nM
"C=C[C@H]1CN2CC[C@@]3(O)C(=Nc4cccc(OC)c43)[C@@H]2C[C@@H]1/C(=C\OC)C(=O)OC [7OH PAYN, 7-Hydroxypaynantheine]",Ki,μOR,6150 nM
same,Ki,δOR [1],12700 nM
same,Ki,κOR; Binding Ki (µM),7.46 µM
same,IC50,HA-mouse µOR [2],21800 nM
same,Emax,HA-mouse µOR [2],80 ± 40%
same,IC50,FLAG-mouse δOR [7],5740 nM
same,Emax,FLAG-mouse δOR [7],70 ± 20%
same,Decrease in ethanol consumption,wild-type C57Bl/6 mice [5]; 30 mg∙kg^−1 s.c.,1.1 ± 0.3 g/kg
same,Reduction in ethanol consumption,wild-type C57Bl/6 mice [5]; 30 mg∙kg^−1 s.c.,40 ± 11%
same,Ethanol preference,wild-type C57Bl/6 mice [5]; [16],corresponding decrease in ethanol preference
same,Water consumption,wild-type C57Bl/6 mice [5]; [16],concomitant increase in water consumption
same,Alcohol intake,wild-type C57Bl/6 mice [5]; 7-hydroxypaynantheine 10 and 30 mg∙kg^−1 s.c.,significantly reduce alcohol intake
"CC[C@@H]1CN2CC[C@@]3(O)C(=Nc4cccc(OC)c43)[C@@H]2C[C@@H]1/C(=C\OC)C(=O)OC [7-OH MITRA, 7-hydroxymitragynine, reference compound]",Ki,δOR [1],190 nM
same,Ki,κOR; Binding Ki (µM),0.14 µM
same,cAMP α,HA-mouse µOR [8],84 ± 3
same,cAMP α,"FLAG-mouse δOR [9]; normalized to Leu-enkephalin, ref Gutridge et al., 2020",80 ± 8
same,IC50,FLAG-mouse δOR [9]; [17],960 nM
same,cAMP α,"FLAG-mouse κOR [10]; normalized to U50,488, ref Gutridge et al., 2020",77 ± 5
same,IC50,FLAG-mouse κOR [10]; [17],1040 nM
same,Minimal effective dose to reduce alcohol intake,"wild-type C57Bl/6 mice [3]; ref Gutridge et al., 2020",3 mg/kg
same,Hyperlocomotion and CPP,C57Bl/6 male mice [11],caused both hyperlocomotion and CPP
same,Hyperlocomotion induced by 7-hydroxymitragynine after naloxone pretreatment,C57Bl/6 male mice [12],blocked
same,β-arrestin 2 α,δOR [13],14 ± 1
Oc1ccc2c3c1O[C@H]1c4oc5ccccc5c4C[C@@]4(O)[C@@H](C2)N(CC2CC2)CC[C@]314 [naltriben],Alcohol consumption,"wild-type C57Bl/6 mice [3]; 6 and 10 mg∙kg^−1, ref van Rijn and Whistler, 2009",dose-dependently decreases alcohol consumption
"CC[C@H]1CN2CCc3c([nH]c4cccc(OC)c34)[C@@H]2C[C@@H]1/C(=C\OC)C(=O)OC [SPG, speciogynine]",Ki,κOR; Binding Ki (µM),3 µM
same,Ki,κOR; Binding pKi,3.98 µM
